Assay [1] has as its system LN-18 cells. Briefly: Cell death by PI staining and flow cytometry, LN-18. Format: cell-based, human. The settings on record: 6 h at 37°C, serum-free medium, means ± SD (n=3), Fig 1H, read-out: IC50 for inducing cell death. An excerpt: (§1) Figure 1 VDAC1-based peptides induce dramatic cell death of several brain tumor-derived cell lines but to lesser extent in primary brain cells A. IHC staining of VDAC1 of human normal brain (n=13) or glioblastoma (n=41) in tissue array slides (Biomax), as described in Materials and methods available online in Supplemental information. Percentages of sections stained at the intensity indicated are shown. […] The VDAC1-derived sequences Δ(1-14)N-terminus and LP4 are in green and pink, respectively. The cell-penetrating peptides Antp and Tf are in orange and blue, respectively. The loop shape of LP4 stabilized by a tryptophan zipper is in purple. The amino acids of Δ(1-14)N-terminus, LP4 and Antp are in the D configuration. The sequences of D-LP4 and Retro-D-LP4 are presented below. C. […] Cells were harvested, washed twice with PBS and cell death was analyzed by propidium iodide (PI) staining and flow cytometry. […] Cells were harvested, washed twice with PBS and cell death was analyzed by PI staining and flow cytometry. […]
Cells (6×10^5 /ml) were incubated in 500 μl serum-free medium with the peptide of interest for 6 h at 37°C in the presence of 5% CO2. The cells were then trypsinized, centrifuged (1500xg, 5 min), washed with PBS and analyzed for cell death using propidium iodide (PI) staining and flow cytometer (Beckton-Dickinson, San Jose, CA) and BD CellQuest Pro software. […]

Assay [2] concerns U-87MG cells. Briefly: Cell death by propidium iodide (PI) staining and flow cytometry, U-87MG. To be noted: 6 h at 37°C, serum-free medium, means ± SD (n=3), Fig 1H, read-out: IC50 for inducing cell death. The class given is cell-based, human.
Excerpt: as §1, with “configuration.” for “configuration. The sequences of D-LP4 and Retro-D-LP4 are presented below. C.”
Sections were also hematoxylin-stained and visualized by microscopy. […] Quantitative analysis of immunoblots is shown (n=2-4). […] E. Quantitative analysis of immunoblots. […]
[…] The cells were then trypsinized, centrifuged (1500xg, 5 min), washed with PBS and analyzed for cell death using propidium iodide (PI) staining and flow cytometer (Beckton-Dickinson, San Jose, CA) and BD CellQuest Pro software. […]

In assay [3] the test system is GSC markers. The assay is described as follows: Expression of GSC markers in treated tumors (IHC, immunoblot). Format: in vivo, human U-87MG in nude mice. To be noted: treated tumors vs PBS/DMSO. The method, then:
Sections were also hematoxylin-stained and visualized by microscopy. B. Tissue lysates obtained from controls and several TF-D-LP4-TTs were immunoblotted for Nestin, Sox2, NGFR, CD133, and Klf4. C. Quantitative analysis of immunoblots is shown (n=2-4). D. Immunoblot analysis of, Klf4, Sox2, Nestin and Musashi expression in U-87MG and G7 cell lines, using specific antibodies. E. Quantitative analysis of immunoblots. […] G. G7 (·) and U-87MG cells (○) (2×10^5) were incubated for 3 h with the DMSO (0.15%) or with the indicated concentration of Retro-Tf-D-LP4 peptide in serum-free growth medium at 37°C and then subjected to FITC-Annexin V/PI staining and flow cytometry analysis. H. Representative FACS analysis of DMSO- (left) and 5 μM of Retro-Tf-D-LP4- (right) treated G7 or U-87MG cells.
Formalin-fixed, paraffin-embedded sections of control and peptide-TTs were hematoxylin-eosin stained, probed with appropriate antibodies via IHC staining or immunoblotting of cells and tissue extracts.
PLGA encapsulation of the VDAC1-based minutes using an UltraMicroPump III (World Precision peptide Retro-Tf-D-LP4 Instruments, Sarasota, FL). After infusion, the needle was left in place for 1 minute before slow withdrawal. The burr
Retro-Tf-D-LP4-loaded PLGA complexes were hole was sealed using sterile bone wax, and the wound prepared by the solvent displacement method with some was closed with 5.0 nylon surgical suture. All surgical modifications, as previously reported [2 3]. Twenty procedures were performed under sterile conditions.
100% DMSO and then diluted 20-fold with sterile DDW into three groups (6 animals/group) and treated every to reach a concentration of 25 mg/ml in a final DMSO third day with DMSO (1.44%), Retro-Tf-D-LP4 (10 concentration of 5%. PLGA (50 mg) was dissolved in mg/kg) or Retro-Tf-D-LP4 (10 mg/kg) encapsulated by acetone (1 ml). Then, 105 µl of peptide were added to the PLGA. Mice were subjected to MRI (at days 20 and 29), PLGA-acetone solution. The resulting peptide-PLGA- sacrificed, and brains were excised and processed for acetone mixture was added drop-wise (0.5 ml/min) into IHC. Tumor volume was analyzed using VivoQuant 2.10 10 ml of aqueous solution containing 1% PVA (w/v). The software. These experimental protocols were approved by mixtures were stirred continuously at room temperature the Institutional Animal Care and Use Committee of Ben-until complete evaporation of the organic solvent. The Gurion University. nanoparticles were centrifuged at 15,000g (4 °C for 20 min) and the pellet was re-suspended in sterile DDW and Gel electrophoresis and immunoblotting washed two times. The resulting pellet was mixed with HBSS solution. Cells or tumor tissue were lysed using lysis buffer (50 mM Tris-HCl, pH 7.5, 150 mM NaCl, 1
Xenograft and intracranial-orthotopic mouse mM EDTA, 1.5 mM MgCl2, 10% glycerol, 1% Triton models X-100, supplemented with a protease inhibitor cocktail
(Calbiochem, UK). Cell lysates were then centrifuged at U-87MG glioblastoma cells (3 x106) were inoculated 600xg (10 min at 4°C) and samples (10-40 μg of protein) s.c. into the hind leg ﬂanks of athymic eight-week old were subjected to SDS-PAGE and immunoblotting male nude mice (Envigo). Thirteen days post-inoculation, using various primary antibodies (sources and dilutions tumor volume was measured and calculated (100-130 as detailed in supplementary Table 2), followed by mm3) and mice were randomized into three groups (5 the appropriate HRP-conjugated secondary antibodies mice/group). Each treatment substance was injected into (i.e., anti-mouse, anti-rabbit or anti-goat). Blots the established s,c. tumors using PBS containing 0.26% were developed using enhanced chemiluminescence DMSO or peptide in PBS, 0.26% DMSO/20 μM). The (Biological Industries). Band intensities were analyzed xenografts were injected 20 µl per tumor (2 points) every by densitometry using Multi Gauge software (Fujifilm) […]
two days. […]

The record followed here is PMC5458211, “Mitochondrial VDAC1-based peptides: Attacking oncogenic properties in glioblastoma” (Oncotarget, 2017).

Non-standard residues stand in square brackets, D forms with d. Residues, ends and D or L forms follow the SMILES beside them.

As to `CC[C@@H](C)[C@@H](NC(=O)[C@@H](CCCCN)NC(=O)[C@H](NC(=O)[C@@H](CCC(N)=O)NC(=O)[C@@H](CCCNC(=N)N)NC(=O)[C@@H](CC(C)C)NC(=O)CNC(=O)[C@@H](Cc1ccccc1)NC(=O)CNC(=O)[C@@H](Cc1ccc(O)cc1)NC(=O)CNC(=O)[C@@H](CCCCN)NC(=O)[C@H](NC(=O)[C@@H](Cc1ccccc1)NC(=O)[C@H](NC(=O)[C@@H](CC(=O)O)NC(=O)[C@H](N)CCCNC(=N)N)C(C)C)[C@H](C)O)[C@H](C)CC)C(=O)N[C@H](Cc1c[nH]c2ccccc12)C(=O)N[C@H](Cc1ccccc1)C(=O)N[C@H](CCC(N)=O)C(=O)N[C@H](CC(N)=O)C(=O)N[C@H](CCCNC(=N)N)C(=O)N[C@H](CCCNC(=N)N)C(=O)N[C@H](CCSC)C(=O)N[C@H](CCCCN)C(=O)N[C@H](Cc1c[nH]c2ccccc12)C(=O)N[C@H](CCCCN)C(=O)N[C@H](CCCCN)C(=O)O` [D-ΔN-Ter-Antp] (H-[dR][dD][dV][dF][dT][dK]G[dY]G[dF]G[dL][dR][dQ][dI][dK][dI][dW][dF][dQ][dN][dR][dR][dM][dK][dW][dK][dK]-OH; N-terminus and C-terminus assumed), the results for the half-maximal inhibitory concentration (IC50) in assay [1] and in assay [2] were 3 ± 0.6 µM and 3.2 ± 0.6 µM, respectively.
Take `CC[C@H](C)[C@H](NC(=O)[C@H](C)NC(=O)[C@@H](N)Cc1c[nH]cn1)C(=O)N[C@@H](Cc1ccc(O)cc1)C(=O)N1CCC[C@H]1C(=O)N[C@@H](CCCNC(=N)N)C(=O)N[C@@H](Cc1c[nH]cn1)C(=O)N[C@@H](CO)C(=O)N[C@@H](Cc1c[nH]c2ccccc12)C(=O)N[C@H](C(=O)N[C@@H](Cc1c[nH]c2ccccc12)C(=O)N[C@@H](CCC(=O)O)C(=O)N[C@H](CCCCN)C(=O)N[C@H](CCCCN)C(=O)N[C@H](CC(C)C)C(=O)N[C@H](CCC(=O)O)C(=O)N[C@@H](C(=O)N[C@H](C)C(=O)N[C@@H](C(=O)N[C@H](CC(N)=O)C(=O)N[C@H](CC(C)C)C(=O)N[C@H](C)C(=O)N[C@H](Cc1c[nH]c2ccccc12)C(=O)N[C@@H](C(=O)N[C@H](C)C(=O)NCC(=O)N[C@H](CC(N)=O)C(=O)N[C@H](CO)C(=O)N[C@H](CC(N)=O)C(=O)N[C@@H](CCCCN)C(=O)N[C@@H](Cc1c[nH]c2ccccc12)C(=O)N[C@H](C(=O)N[C@@H](Cc1c[nH]c2ccccc12)C(=O)N[C@@H](CCCCN)C(=O)O)[C@@H](C)O)[C@H](C)O)C(C)C)[C@H](C)O)[C@@H](C)O` [Tf-D-LP4]: in assay [3], the CD133 expression result is on record as “markedly lower”, the Klf4 expression entry was “markedly lower”, the NGFR expression entry is on record as “markedly lower” and the Nestin expression entry was “markedly lower”. For the same compound, in assay [3], the S100B expression entry is recorded as “markedly lower” and the Sox2 expression result is “markedly lower”.
